Experimental data: patent publication US20220088199A1, “METHOD FOR PROTECTING GLYCEROL ALKYL ETHERS FROM OXIDATION” (SACHEM, INC., priority 2016, published 2022)

Experiments:
[1] = Stability testing at room temperature: formation of formaldehyde and peroxides (Example 1); type: physicochemical; conditions: zero time
From the text: The thus-prepared compositions are subjected to stability testing, under which formation of formaldehyde and peroxides and determined as indicators of stability, in which higher amounts of formaldehyde and/or peroxides are deemed to show lower stability of the mixture. […] This sample is obtained commercially from Schulke GmbH. The tests for all samples determine the formaldehyde and peroxide contents of the test sample when stored at room temperature (RT), for periods of 0, 2, 4, 6, 8, 10 and 12 months. The 0 month sample is the freshly prepared composition.

[2] = Stability testing of SASKINE50 blends at 50° C., analysed by GC (Example 2); conditions: for loss of SASKINE50 (3-[(2-ethylhexyl)oxy]-1,2-propanediol) assay on storage: one month, 725 ppm antioxidant in 99.6% pure SASKINE50, FIG. 3
Protocol: The blend is analyzed via gas chromatography (GC) prior to stability testing. Following the analysis result, the blend is placed under atmospheric pressure and under an inert gas into individual sample bottles as not to disturb the testing conditions during sampling. The test conditions are 50° C. for one month. […] These test conditions are considered to simulate a shelf-life of approximately one year at room temperature.
The samples are dissolved in isopropyl alcohol at a concentration of 10% for the GC analysis. The following GC conditions are used:
Column: • Material: fused silica WCOT • Length: 30 m • Internal diameter: 0.32 mm • Stationary phase: DB1701 • Film thickness: 1 μm • Gas regulation: Carrier gas: hydrogen • Make-up gas: helium • Temperatures: Detector: 300° C. • Injector: 275° C. • Start temperature: 115° C. • Warm up speed 1: 8° C./minute • End temperature: 210° C. • Warm up speed 2: 15° C./minute • End temperature: 275° C.
Detection: Type detector: FID

[3] = test system: human reconstructed epidermis (SkinEthic model); assay: In vitro skin irritation study, SkinEthic model, OECD 439; type: cell-based; conditions: pure product applied 42 minutes, 42 hours incubation; MTT viability and IL1-α; FIG. 8
Protocol: As noted herein, the inventive compositions are intended for use in cosmetic and pharmaceutical compositions. One important criteria for such products is that there be no skin irritation, when the compositions are applied to the skin of the person using the cosmetic or pharmaceutical composition. To test the compositions of the present invention, a non-animal test is conducted, which is an in vitro skin irritation study of the compositions on human reconstructed epidermis known as the SkinEthic model, OECD 439. […] After the pure product has been applied to the epidermis for 42 minutes and they have been incubated for 42 hours post-treatment, cell viability is determined by measuring mitochondrial succinate dehydrogenase activity in living cells. […] A spectrophotometer is used to read the results after the crystals have been dissolved. The measured absorbances are proportional to the number of living cells. In addition, release of inflammation (IL1-α) mediators is measured by colorimeter if cell viability is over 50%. […] Cytotoxicity: absorbance is measured three times at 540 nm. The results are expressed as a viability percentage compared to a negative control: […]
IL1-α titration: IL1-α concentrations in the culture media are evaluated using the instructions on the titration kit and are expressed as pg/ml. […]

[4] = test system: microbial strain (bacteria, yeasts, molds); assay: Minimum inhibitory concentration (MIC) determination; type: cell-based; conditions: FIG. 7; compared to plain material and Sensiva
Protocol: As discussed in the background, the purpose of the glyceryl ether compounds such as SASKINE50™ and SASKINE80™ is as a preservative and antimicrobial, especially in cosmetics and pharmaceutical preparations. To test the SASKINE50™ and SASKINE80™, minimum inhibitory concentrations are determined for SASKINE50™ alone, SASKINE50™ with naringenin, SASKINE80™ alone, and SASKINE80™ with naringenin, and, for comparison, Sensiva® SC 50, which contains 3-[(2-ethylhexyl)oxy]-1,2-propanediol and synthetic alpha-tocopherol, which is commercially available from Schülke & Mayr Benelux B.V., 2032 HA-Haarlem, Netherlands. The determination of the minimal inhibitory concentration (MIC) is carried out according to the standard procedure described below.
The purpose of the MIC study is to find a minimum concentration of the test item which will enable to inhibit in vitro the growth of a microbial strain. The MIC characterizes the bacteriostatic or fungistatic effect of a product.
In the MIC test, the product is diluted according to a geometric progression of reason 2 over a range of at least 5 dilutions starting from the maximum concentration to be tested specified by the customer. In each tube of the dilution range, a cultured medium double concentered is included with the strains to be tested. […]

[5] = Stability testing of SASKINE80 blend at 50° C., analysed by GC (Example 3); type: physicochemical
Protocol: In this example, SACHEM's SASKINE80™ is used as basis for the stability testing of […] within the scope of the present invention, i.e., naringenin. A pre-defined blend containing SASKINE80™ and this anti-oxidant compound in accordance with the present invention are prepared, the blend containing 725 ppm of the naringenin in 99.6% pure SASKINE80™ (3-[(n-octyl)oxy]-1,2-propanediol). […] The test conditions are 50° C. for two weeks and four weeks.

| SMILES | loss of SASKINE50 (3-[(2-ethylhexyl)oxy]-1,2-propanediol) assay on storage [2] | also measured |
| --- | --- | --- |
| CCCCC(CC)COCC(O)CO (centres unmarked) [SASKINE50™, 3-[(2-ethylhexyl)oxy]-1,2-propanediol] | significant loss | peroxide present ([1]; Example 1, FIG. 1): measurable, non-zero amount; formaldehyde present ([1]; Example 1, FIG. 2): measurable, non-zero amount; increase in volatile degradation products (low boiling compounds) ([2]; 2 weeks and 4 weeks, 725 ppm antioxidant in SASKINE50, FIG. 4): significant amount of breakdown products; skin irritation classification [3]: irritant of category 1 or 2 |
| CCCCCCCCOCC(O)CO (centres unmarked) [SASKINE80™, 3-[(n-octyl)oxy]-1,2-propanediol] |  | minimum inhibitory concentration (anti-microbial growth) [4]: even better performance; increase in low boiling compounds ([5]; two and four weeks, FIG. 5b): notable increase; SASKINE80 assay decrease ([5]; two weeks and four weeks, FIG. 5a): about 0.40% |
| COc1ccc(-c2cc(=O)c3c(O)cc(O)cc3o2)cc1O [diosmetin] | almost no loss |  |
| O=C1C[C@@H](c2ccc(O)cc2)Oc2cc(O)cc(O)c21 [naringenin] | almost no loss |  |
| C[C@@H]1O[C@@H](O[C@H]2[C@H](Oc3cc(O)c4c(c3)O[C@H](c3ccc(O)cc3)CC4=O)O[C@H](CO)[C@@H](O)[C@@H]2O)[C@H](O)[C@H](O)[C@H]1O [naringin hydrate] | performed less well |  |
| O.O=c1c(O)c(-c2ccc(O)cc2O)oc2cc(O)cc(O)c12 [norinhydrate] | almost no loss |  |
| O=c1c(O)c(-c2ccc(O)c(O)c2)oc2cc(O)cc(O)c12 [quercetin] | almost no loss |  |
| COc1cc(O)c2c(=O)c(O)c(-c3ccc(O)c(O)c3)oc2c1 [rhamnetin] | almost no loss |  |
